Key:
[1] = tested on: Streptococcus agalactiae; assay: Detection of Streptococcus agalactiae strains on reaction media containing an α-glucosidase enzymatic substrate; type: cell-based; conditions: substrate 0.1 g/l; for intensity (I) of coloration: arbitrary scale 0 to 4
Method: The reaction media were prepared by mixing heart-brain extract (4.84 g/l; Solabia), meat infusion (1.96 g/l; Solabia), biothione (1 g/l; Solabia), biotrypcase (7.2 g/l; Solabia), sodium carbonate (0.3 g/l; VWR), sodium pyruvate (2 g/l; Fluka), HEPES buffer (0.4 g/l; Sigma), lactalbumin peptone (2 g/l; DMV), glucose (1 g/l; Merck), American agar (2 g/l; Sobigel) and European agar (12 g/l; Roko).
The media were then poured into a Petri dish for subsequent inoculation with bacterial strains.
Eight Streptococcus agalactiae strains derived from the applicant's collection, suspended in physiological saline, were inoculated so as to give isolated colonies on each of the media. The dishes were then incubated at 37° C. for 48 hours. The colonies formed are examined visually after 18, 24 and more than 40 hours of incubation. The coloration of these colonies, the growth and also the intensity of this coloration were noted.
The results are given in table 1 below and are expressed: • in terms of growth (G) with the size being indicated in mm, • in terms of intensity (1) of coloration based on an arbitrary scale ranging from 0 to 4, 0 corresponding to an absence of activity and 4 corresponding to the presence of a very intense coloration, • in terms of color (Co) with T=turquoise, R=pink or red, Gr=green, Mg=magenta, • according to the incubation time in hours (T).

[2] = tested on: Streptococcus agalactiae; assay: Number of strains detected as a function of the concentration of α-glucosidase substrate; type: cell-based; conditions: positive when I≧0.6, 8 strains
Text: The above protocol was repeated, with the exception that the concentration of enzymatic substrate was varied.
Table 2 below gives the number of strains detected (considered to be positive when I≧0.6) as a function of the concentration of substrate.

OC[C@H]1O[C@H](Oc2c[nH]c3cc(Cl)ccc23)[C@H](O)[C@@H](O)[C@@H]1O [Rose-alpha-Glu, 6-chloro-3-indolyl-α-D-glucopyranoside]
intensity (I) of coloration ([1]; strain 0008200, 18 h): 0.1
growth (G), size ([1]; strain 0008200, 18 h incubation): 0.5 mm
intensity (I) of coloration ([1]; strain 0008200, 24 h): 0.3
growth (G), size ([1]; strain 0008200, 24 h incubation): 0.5 mm
intensity (I) of coloration ([1]; strain 0008200, >40 h): 0.5
growth (G), size ([1]; strain 0008200, >40 h incubation): 0.5 mm
intensity (I) of coloration ([1]; strain 0008206, 18 h): 0.1
growth (G), size ([1]; strain 0008206, 18 h incubation): 0.7 mm
intensity (I) of coloration ([1]; strain 0008206, 24 h): 0.3
growth (G), size ([1]; strain 0008206, 24 h incubation): 0.8 mm
intensity (I) of coloration ([1]; strain 0008206, >40 h): 0.8
growth (G), size ([1]; strain 0008206, >40 h incubation): 1.2 mm
intensity (I) of coloration ([1]; strain 0101060, 18 h): 0.3
growth (G), size ([1]; strain 0101060, 18 h incubation): 0.5 mm
intensity (I) of coloration ([1]; strain 0101060, 24 h): 0.6
growth (G), size ([1]; strain 0101060, 24 h incubation): 0.7 mm
intensity (I) of coloration ([1]; strain 0101060, >40 h): 2.3
growth (G), size ([1]; strain 0101060, >40 h incubation): 0.8 mm
intensity (I) of coloration ([1]; strain 7611003, 18 h): 0.3
growth (G), size ([1]; strain 7611003, 18 h incubation): 1 mm
intensity (I) of coloration ([1]; strain 7611003, 24 h): 0.6
growth (G), size ([1]; strain 7611003, 24 h incubation): 1.3 mm
intensity (I) of coloration ([1]; strain 7611003, >40 h): 1.3
growth (G), size ([1]; strain 7611003, >40 h incubation): 1.7 mm
growth (G), size ([1]; strain 7701031, 18 h incubation): 0.5 mm
growth (G), size ([1]; strain 7701031, 24 h incubation): 0.7 mm
intensity (I) of coloration ([1]; strain 7701031, >40 h): 0.5
growth (G), size ([1]; strain 7701031, >40 h incubation): 1.2 mm
intensity (I) of coloration ([1]; strain 7702055, 18 h): 0.1
growth (G), size ([1]; strain 7702055, 18 h incubation): 0.7 mm
intensity (I) of coloration ([1]; strain 7702055, 24 h): 0.1
growth (G), size ([1]; strain 7702055, 24 h incubation): 1 mm
intensity (I) of coloration ([1]; strain 7702055, >40 h): 1
growth (G), size ([1]; strain 7702055, >40 h incubation): 1.7 mm
growth (G), size ([1]; strain 8709013, 18 h incubation): 0.4 mm
growth (G), size ([1]; strain 8709013, 24 h incubation): 0.5 mm
intensity (I) of coloration ([1]; strain 8709013, >40 h): 0.5
growth (G), size ([1]; strain 8709013, >40 h incubation): 0.7 mm
intensity (I) of coloration ([1]; strain 8904053, 18 h): 0.1
growth (G), size ([1]; strain 8904053, 18 h incubation): 0.7 mm
intensity (I) of coloration ([1]; strain 8904053, 24 h): 0.3
growth (G), size ([1]; strain 8904053, 24 h incubation): 0.7 mm
intensity (I) of coloration ([1]; strain 8904053, >40 h): 1
growth (G), size ([1]; strain 8904053, >40 h incubation): 0.8 mm
number of strains detected ([2]; substrate 100 mg/l, incubation 24 h): 1/8
number of strains detected ([2]; substrate 100 mg/l, incubation 48 h): 7/8
number of strains detected ([2]; substrate 200 mg/l, incubation 24 h): 3/8
number of strains detected ([2]; substrate 200 mg/l, incubation 48 h): 8/8
number of strains detected ([2]; substrate 300 mg/l, incubation 24 h): 6/8
number of strains detected ([2]; substrate 300 mg/l, incubation 48 h): 8/8

— patent US20070292908A1, “Method for Detecting Streptococcus Agalactiae Using Alpha-Glucosidase Activity” (BIOMERIEUX, priority 2004, published 2007)
